In patent publication US9090657B2, “Compound and methods for its production” (NEUROVIVE PHARMACEUTICAL AB, priority 2011, dated 2015):
pEC50, pIC50: −log10 of the molar value. Read-outs that look alike come from different tables or passages of the source.

Tests used:
MRP2 = MRP2 (Homo sapiens (Human), UniProt Q92887); experiment: Vesicular efflux transporter inhibition, MRP2
Description: (§1) To assess the inhibition of the MRP2, MRP3 and BSEP efflux transporters, an in vitro vesicular transporter assay from Solvo Biotechnology Inc. was used. […] In the case of MRP2 and MRP3 transporters reactions were carried out in the presence of 2 mM glutathione. Reaction mixtures were preincubated for ten minutes at 37° C. Reactions were started by the addition of 25 μl of 12 mM MgATP (4 mM final concentration in assay) or assay buffer for background controls. Reactions were stopped by adding 200 μl of ice-cold washing buffer and immediately followed by filtration on glass fiber filters in a 96-well format (filter plate). Scintillation buffer was added to the washed and dried filter plate and scintillation was counted subsequently. Probe substrates were taurocholate (2 μM) for BSEP vesicles and E217βG (1 μM) for MRP2 and MRP3 vesicles. For all wells the translocated amount of the probe substrate was determined in cpm units. Relative activities were calculated with the following equation:
(§2) Activity %=(A−B)/(C−D)×100 Where A=translocated amount of substrate in the presence of TA and ATP, B=translocated amount of substrate in the presence of TA, C=translocated amount of substrate in the presence of solvent and ATP and D=translocated amount of substrate in the presence of solvent. […]

HIV = experiment: microbe, parasite or virus in culture; format: cell-based; conditions: Human immunodeficiency virus 1, HeLa, read-out: HeLa cells EC50
Description: Briefly, human PBMCs were purified from fresh blood by banding on Ficoll-Hypaque (30 min, 800 g, 25° C.). Primary human CD4+ T cells were purified from PBMCs by positive selection with anti-CD4 Dynabeads and subsequent release using Detachabead. […] Three days after stimulation, cells were split 1:2 in medium containing IL-2 (200 units/ml final concentration). Cultures were then split 1:2 every 2 days in IL-2 medium and infected with HIV at 7 days after stimulation. […] To obtain monocyte-derived macrophages, cells were allowed to adhere to plastic and cultured for 6 days to allow differentiation.
CD4+ HeLa cells, Jurkat cells, activated CD4+ peripheral blood T-lymphocytes and macrophages (500,000 cells/100 μL) were incubated with pNL4.3-GFP (X4 virus) or pNL4.3-BaL-GFP (R5 virus) (100 ng of p24) in the presence of increasing concentrations of test article, Forty-eight hours later, infection was scored by analyzing the percentage of GFP-positive cells by FACS and EC50 calculated.
Compounds were analysed in an HIV antiviral assay using HeLa cells as described in the General Methods.

[1] = tested on: HCV genotype 1b I389luc-ubi-neo/NS3-3'/5.1 replicon in Huh5.2 cells; experiment: HCV genotype 1b replicon assay, antiviral effect (luciferase); format: cell-based, Hepatitis C virus; conditions: for pEC50: Hepatitis C virus, Huh-5-2, 72 h; for Selectivity index (CC50/EC50): Huh5.2 replicon assay
Description: (§3) Dilution series are prepared; each dilution series is performed in at least duplicate.
For the evaluation of antiviral effects, assay medium is aspirated and the cell monolayers are washed with PBS. The wash buffer is aspirated, 25 μL of Glo Lysis Buffer (Cat. No. E2661, Promega) is added after which lysis is allowed to proceed for 5 min at room temperature. Subsequently, 50 μL of Luciferase Assay System (Cat. No. E1501, Promega) is added and the luciferase luminescence signal is quantified immediately (1000 ms integration time/well, Safire^2, Tecan). Relative luminescence units are converted to percentage of untreated controls.
(§4) The selectivity index (SI), indicative of the therapeutic window of the compound, is calculated as CC50/EC50.
(§5) Compounds were analysed in the genotype 1b replicon assay using Huh5.2 cells as described in the General Methods.

[2] = Mouse in vivo oral and iv PK; conditions: male, CD1 mice, whole blood; for clearance: iv at 1 mg/kg; for AUC(0-t): read-out: po AUClast
Description: For sanglifehrin analogues, whole blood is analysed. Compounds are formulated in 5% ethanol/5% cremophor EL/90% saline for both p.o. and i.v. administration. Groups of 3 male CD1 mice are dosed with either 1 mg/kg i.v. or 5 or 10 mg/kg p.o. Blood samples (40 μL) are taken via saphenous vein, pre-dose and at 0.25, 0.5, 2, 8, and 24 hours, and diluted with an equal amount of dH20 and put on dry ice immediately. Samples are stored at −70° C. until analysis. The concentration of the compound of the invention or parent compound in the sample is determined via LCMS as follows: 20 μL of blood:H2O (1:1, v/v)/PK sample is added with 20 μL Internal standard (hydroxyl macrocycle, 6) at 100 ng/mL, 20 μL working solution/MeOH and 150 μL of ACN, vortexed for 1 minute at 1500 rpm, and centrifuged at 12000 rpm for 5 min. The supernatant is then injected into LC-MS/MS. The time-course of blood concentrations is plotted and used to derive area under the whole blood concentration-time curve (AUC—which is directly proportional to the total amount of unchanged drug that reaches the systemic circulation). These values are used to generate PK parameters where possible.
To assess the pharmacokinetics of the compounds in an in vivo setting, compounds were dosed po at 10 or 5 mg/kg and iv at 1 mg/kg to groups of CD1 mice. Pharmacokinetic analysis was carried out as described in the general methods. The PK parameters are shown below.

CypA = CypA (Homo sapiens (Human), UniProt P62937); experiment: biochemical
Chain of CypA (P62937 whole entry): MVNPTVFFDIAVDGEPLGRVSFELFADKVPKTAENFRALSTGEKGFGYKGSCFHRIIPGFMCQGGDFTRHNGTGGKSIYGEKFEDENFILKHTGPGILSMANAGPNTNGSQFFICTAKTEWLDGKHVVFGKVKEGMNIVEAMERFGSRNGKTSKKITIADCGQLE
Description: An alternative methodology for analysing interaction with cyclophilins is described as follows: The PPlase activity of recombinant CypA or D, produced by thrombin cleavage of GST-CypA or D, was determined by following the rate of hydrolysis of N-succinyl-Ala-Ala-Pro-Phe-p-nitroanilide by chymotrypsin. Chymotrypsin only hydrolyzes the trans form of the peptide, and hydrolysis of the cis form, the concentration of which is maximized by using a stock dissolved in trifluoroethanol containing 470 mM LiCl, is limited by the rate of cis-trans isomerization. CypA or D was equilibrated for 1 h at 5° C. with selected test article using a drug concentration range from 0.1 to 20 nM. The reaction was started by addition of the peptide, and the change in absorbance was monitored spectrophotometrically at 10 data points per second. The blank rates of hydrolysis (in the absence of CypA or D) were subtracted from the rates in the presence of CypA or D. The initial rates of the enzymatic reaction were analyzed by first-order regression analysis of the time course of the change in absorbance.
To assess the direct inhibition of CypA Peptidyl Prolyl cis-trans Isomerase (PPlase) activity, a method was used as described in the general methods.

[3] = target: P-glycoprotein (Pgp/MDR1) (Homo sapiens (Human), UniProt P08183); experiment: Inhibition of Pgp transporter using MDR1-MDCK cells; format: cell-based; conditions: loperamide substrate
Chain of P-glycoprotein (Pgp/MDR1) (P08183 whole entry): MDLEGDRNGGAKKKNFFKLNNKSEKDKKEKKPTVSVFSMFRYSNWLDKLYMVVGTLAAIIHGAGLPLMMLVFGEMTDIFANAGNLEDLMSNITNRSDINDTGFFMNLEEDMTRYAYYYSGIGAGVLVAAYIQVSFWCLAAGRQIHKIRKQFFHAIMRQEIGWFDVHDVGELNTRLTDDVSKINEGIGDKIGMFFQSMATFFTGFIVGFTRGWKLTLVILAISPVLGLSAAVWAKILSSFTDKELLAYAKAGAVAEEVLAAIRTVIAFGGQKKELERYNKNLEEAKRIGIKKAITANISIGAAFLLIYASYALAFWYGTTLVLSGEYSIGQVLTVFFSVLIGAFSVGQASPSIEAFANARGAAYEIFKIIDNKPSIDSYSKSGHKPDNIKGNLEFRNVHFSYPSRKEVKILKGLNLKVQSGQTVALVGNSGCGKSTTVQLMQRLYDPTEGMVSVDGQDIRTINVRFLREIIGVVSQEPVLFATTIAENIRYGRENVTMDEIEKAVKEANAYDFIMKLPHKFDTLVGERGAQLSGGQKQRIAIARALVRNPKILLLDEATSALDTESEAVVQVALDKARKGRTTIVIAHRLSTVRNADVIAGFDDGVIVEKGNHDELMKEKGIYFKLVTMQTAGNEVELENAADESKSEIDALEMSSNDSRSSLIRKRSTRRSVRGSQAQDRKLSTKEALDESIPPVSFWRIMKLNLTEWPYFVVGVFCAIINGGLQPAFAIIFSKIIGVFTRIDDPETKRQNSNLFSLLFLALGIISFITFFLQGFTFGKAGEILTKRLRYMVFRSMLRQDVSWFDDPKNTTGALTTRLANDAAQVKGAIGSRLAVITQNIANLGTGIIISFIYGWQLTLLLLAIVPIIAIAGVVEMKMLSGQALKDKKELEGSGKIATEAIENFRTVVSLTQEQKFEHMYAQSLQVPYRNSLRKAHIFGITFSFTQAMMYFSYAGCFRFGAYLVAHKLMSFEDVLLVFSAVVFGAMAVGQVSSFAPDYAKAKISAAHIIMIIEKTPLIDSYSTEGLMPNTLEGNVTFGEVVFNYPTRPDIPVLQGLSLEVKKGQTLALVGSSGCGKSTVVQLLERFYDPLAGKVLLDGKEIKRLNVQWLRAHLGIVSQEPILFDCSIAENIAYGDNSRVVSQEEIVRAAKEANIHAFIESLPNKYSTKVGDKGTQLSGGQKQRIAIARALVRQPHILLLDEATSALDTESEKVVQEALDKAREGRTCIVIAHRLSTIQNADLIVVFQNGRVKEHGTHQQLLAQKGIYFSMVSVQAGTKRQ
Description: To assess the inhibition of the P-glycoprotein (Pgp/MDR1) transporter, an in vitro ATPase assay from Cyprotex was used. MDR1—MDCK cells obtained from the NIH (Rockville, Md., USA) were used. Following culture, the monolayers were prepared by rinsing both basolateral and apical surfaces twice with buffer at pH 7.4 and 37° C. […] For the apical to basolateral study (A-B), buffer at pH 7.4 was removed from the apical compartment and replaced with loperamide dosing solutions before being placed in the ‘companion’ plates. The solutions were prepared by diluting loperamide in DMSO with buffer to give a final loperamide concentration of 5 μM (final DMSO concentration adjusted to 1%). The fluorescent integrity marker Lucifer yellow was also included in the dosing solution. The experiment was performed in the presence and absence of the test compound (applied to both the apical and basolateral compartments). For basolateral to apical (B-A) study, the P-glycoprotein substrate, loperamide (final concentration=5 μM) was placed in the basolateral compartment. The experiment was performed in the presence and absence of the test compound (applied to the apical and basolateral compartments). […] The test compound was assessed at 0.1, 0.3, 1, 3, 10, 30 and 50 μM. […] After analysis, an IC50 was calculated (i.e., inhibitor concentration (test drug) achieving half maximal inhibition effect).

OATP1B1 = OATP1B1 (Homo sapiens (Human), UniProt Q9Y6L6); experiment: Uptake transporter inhibition, OATP1B1; format: cell-based; conditions: CHO cells, probe substrate E3S
Description: (§6) To assess the inhibition of the […] and OAT1B3 uptake transporters, an in vitro uptake transporter assay from Solvo Biotechnology Inc. was used. […] Parental cell line CHO-K was used as negative control. […] Before experiments the medium was aspirated by vacuum suction, cells were washed with 2×100 μl of Krebs-Henseleit buffer pH 7.3 (prepared from Sigma chemicals, Sigma-Aldrich, St Louis, Mo.). Uptake experiments were carried out at 37° C. in 50 μl of Krebs-Henseleit buffer (pH 7.3) containing the probe substrate and the TA or solvent, respectively. […] The probe substrate for the OATP1B1 assay was E3S (0.1 μM) and for the OATP1B3 assay was Fluo-3 (10 μM). The translocated amount of probe substrate was determined for each well in cpm. Relative activities were calculated from the equation: Activity%=(A−B)/(C−D)×100

[4] = target: Bile Salt Export Pump (BSEP) (Homo sapiens (Human), UniProt O95342); experiment: Vesicular efflux transporter inhibition, BSEP; format: biochemical; conditions: membrane vesicles, probe taurocholate
Description: Relative activities were calculated with the following equation: […]

OATP1B3 = OATP1B3 (Homo sapiens (Human), UniProt Q9NPD5); experiment: Uptake transporter inhibition, OATP1B3; format: cell-based; conditions: CHO cells, probe substrate Fluo-3
Description: as §6

MRP3 = MRP3 (Homo sapiens (Human), UniProt O15438); experiment: Vesicular efflux transporter inhibition, MRP3
Chain of MRP3 (O15438 whole entry): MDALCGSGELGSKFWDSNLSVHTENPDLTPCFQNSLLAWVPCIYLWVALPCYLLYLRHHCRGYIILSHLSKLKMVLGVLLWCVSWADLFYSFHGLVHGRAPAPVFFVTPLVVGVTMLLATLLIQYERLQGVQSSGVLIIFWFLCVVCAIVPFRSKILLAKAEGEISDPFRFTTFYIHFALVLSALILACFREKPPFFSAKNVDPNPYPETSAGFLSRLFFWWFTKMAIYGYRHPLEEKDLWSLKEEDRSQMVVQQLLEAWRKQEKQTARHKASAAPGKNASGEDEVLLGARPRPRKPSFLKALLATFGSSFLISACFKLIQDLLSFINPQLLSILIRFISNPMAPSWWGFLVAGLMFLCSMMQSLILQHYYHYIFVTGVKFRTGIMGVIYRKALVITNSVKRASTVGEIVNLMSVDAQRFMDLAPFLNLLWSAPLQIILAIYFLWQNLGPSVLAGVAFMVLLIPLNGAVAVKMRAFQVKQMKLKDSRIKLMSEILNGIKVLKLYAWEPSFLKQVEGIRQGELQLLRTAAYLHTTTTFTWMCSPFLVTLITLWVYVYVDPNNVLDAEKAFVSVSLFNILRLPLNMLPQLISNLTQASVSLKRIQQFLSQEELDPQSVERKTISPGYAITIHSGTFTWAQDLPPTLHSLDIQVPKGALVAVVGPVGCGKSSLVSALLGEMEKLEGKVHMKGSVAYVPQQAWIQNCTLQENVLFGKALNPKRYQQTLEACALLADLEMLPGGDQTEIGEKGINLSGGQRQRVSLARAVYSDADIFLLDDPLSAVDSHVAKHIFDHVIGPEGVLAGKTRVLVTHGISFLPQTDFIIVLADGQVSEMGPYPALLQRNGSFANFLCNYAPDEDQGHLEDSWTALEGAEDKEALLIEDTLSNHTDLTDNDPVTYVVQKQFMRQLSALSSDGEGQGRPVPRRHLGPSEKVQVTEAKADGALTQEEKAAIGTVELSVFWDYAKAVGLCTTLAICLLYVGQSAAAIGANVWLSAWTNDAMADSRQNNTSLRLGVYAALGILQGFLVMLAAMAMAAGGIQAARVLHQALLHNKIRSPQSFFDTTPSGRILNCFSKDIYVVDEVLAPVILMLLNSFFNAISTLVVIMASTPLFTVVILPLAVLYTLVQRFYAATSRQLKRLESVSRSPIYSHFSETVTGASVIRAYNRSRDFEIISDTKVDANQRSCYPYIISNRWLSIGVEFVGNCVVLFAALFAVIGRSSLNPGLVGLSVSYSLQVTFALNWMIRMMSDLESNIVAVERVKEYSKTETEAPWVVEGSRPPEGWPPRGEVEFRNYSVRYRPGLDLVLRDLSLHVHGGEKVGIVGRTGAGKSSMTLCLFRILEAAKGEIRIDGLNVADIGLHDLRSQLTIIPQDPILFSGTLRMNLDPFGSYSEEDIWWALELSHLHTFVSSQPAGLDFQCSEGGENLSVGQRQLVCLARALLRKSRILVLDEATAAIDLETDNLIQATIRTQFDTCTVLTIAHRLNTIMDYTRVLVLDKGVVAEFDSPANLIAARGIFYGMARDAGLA
Description: as §1, §2

[5] = Anti-metabolic effect (MTS) in replicon cells; conditions: human
Description: as §3, §4, §5

HBV = conditions: Ptak et al. 2008; read-out: IC50 against HBV; cited from earlier work
Huh5.2 cells = experiment: Anti-metabolic effect (MTS) in replicon cells; conditions: Huh5.2 cells, MTS, 72 hours
Description: as §3, §4, §5

Chain of MRP2 (Q92887 whole entry): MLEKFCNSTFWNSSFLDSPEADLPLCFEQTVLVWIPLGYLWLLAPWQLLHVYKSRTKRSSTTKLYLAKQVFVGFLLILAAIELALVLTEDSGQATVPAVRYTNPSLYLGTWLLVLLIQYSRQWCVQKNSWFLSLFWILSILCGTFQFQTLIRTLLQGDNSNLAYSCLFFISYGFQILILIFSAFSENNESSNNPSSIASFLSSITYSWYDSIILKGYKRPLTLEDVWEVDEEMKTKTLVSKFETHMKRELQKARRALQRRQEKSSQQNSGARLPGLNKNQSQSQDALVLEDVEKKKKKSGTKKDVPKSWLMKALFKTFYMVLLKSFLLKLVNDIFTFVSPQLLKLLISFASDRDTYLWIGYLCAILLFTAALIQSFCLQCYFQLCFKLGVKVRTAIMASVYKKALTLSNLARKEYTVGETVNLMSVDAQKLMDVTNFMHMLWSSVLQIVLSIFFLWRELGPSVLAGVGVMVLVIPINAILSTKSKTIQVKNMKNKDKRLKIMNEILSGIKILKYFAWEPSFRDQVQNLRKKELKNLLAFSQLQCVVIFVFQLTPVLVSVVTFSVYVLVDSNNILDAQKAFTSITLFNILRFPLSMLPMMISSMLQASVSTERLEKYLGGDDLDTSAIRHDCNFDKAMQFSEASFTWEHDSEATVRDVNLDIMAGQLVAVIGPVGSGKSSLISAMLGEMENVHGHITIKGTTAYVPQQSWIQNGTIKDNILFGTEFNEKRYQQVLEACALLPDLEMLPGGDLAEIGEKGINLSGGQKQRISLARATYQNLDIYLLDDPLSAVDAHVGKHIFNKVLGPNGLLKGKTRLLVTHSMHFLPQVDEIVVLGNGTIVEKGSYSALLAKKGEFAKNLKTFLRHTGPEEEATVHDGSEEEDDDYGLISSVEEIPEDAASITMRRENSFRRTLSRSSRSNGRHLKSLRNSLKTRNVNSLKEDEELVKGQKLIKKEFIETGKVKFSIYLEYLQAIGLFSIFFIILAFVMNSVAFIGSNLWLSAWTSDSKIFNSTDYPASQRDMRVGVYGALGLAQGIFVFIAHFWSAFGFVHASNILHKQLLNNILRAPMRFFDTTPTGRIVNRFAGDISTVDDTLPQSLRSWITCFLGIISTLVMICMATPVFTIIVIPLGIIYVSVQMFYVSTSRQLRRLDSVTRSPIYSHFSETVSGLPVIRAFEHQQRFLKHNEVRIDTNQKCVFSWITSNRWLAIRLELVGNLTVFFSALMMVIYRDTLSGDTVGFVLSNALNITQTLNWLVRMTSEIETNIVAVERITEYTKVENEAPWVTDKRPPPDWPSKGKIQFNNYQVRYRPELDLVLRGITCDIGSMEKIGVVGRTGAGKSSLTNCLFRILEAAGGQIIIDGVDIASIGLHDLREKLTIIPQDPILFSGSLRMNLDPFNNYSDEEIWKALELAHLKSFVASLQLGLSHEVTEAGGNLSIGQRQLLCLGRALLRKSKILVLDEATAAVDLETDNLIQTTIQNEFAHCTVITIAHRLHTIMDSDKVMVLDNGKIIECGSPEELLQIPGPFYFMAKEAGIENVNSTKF

Structure (SMILES) | pIC50 (MRP2) | pEC50 (HIV) | pEC50 [1] | Selectivity index (CC50/EC50) [1] | clearance [2] [mL/min/kg] | AUC(0-t) ([2]; po 5 mg/kg) [ng·h/mL] | pIC50 (CypA) | pIC50 [3] | pIC50 (OATP1B1) | pIC50 [4] | pIC50 (OATP1B3) | pIC50 (MRP3) | CC50 at 72 h [5] [nM] | pIC50 (HBV) | pIC50 (CypA; read-out: CypA PPIase IC50, recombinant CypA) | CC50 (Huh5.2 cells) [nM] | AUC(0-t) ([2]; po 10 mg/kg) [ng·h/mL]
CC(=O)CC[C@H]1C(=O)N[C@@H](C(C)C)C(=O)N[C@@H](Cc2cc(O)cc(F)c2)C(=O)N2CCCC(N2)C(=O)O[C@H](/C(C)=C/C=C/C(=O)N2CCCCO2)C/C=C/C=C/[C@H](O)[C@H](C)[C@H]1O (stereo partly drawn) [Compound 24] | < 4.30 | 6.89 | 7.48 | >3030 | 0.283 | 8220 | 9.51 | < 4.30 | 5.37 | 4.91 | 5.74 | < 4.30 | > 100000 | – | – | – | –
C/C=C/C[C@@H](C)[C@@H](O)[C@H]1C(=O)N[C@@H](CC)C(=O)N(C)[C@H](C)C(=O)N(CC)[C@@H](C(C)C)C(=O)N[C@@H](C(C)C)C(=O)N(C)[C@@H](CC(C)C)C(=O)N[C@@H](C)C(=O)N[C@H](C)C(=O)N(C)[C@@H](CC(C)C)C(=O)N(C)[C@@H](CC(C)C)C(=O)N(C)[C@@H](C(C)C)C(=O)N1C [DEBIO-025, 2, DEBIO-025] | 4.80 | 5.82 | 7.02 | 111 | – | – | – | 6.14 | 6.35 | 6.74 | 6.72 | < 4.30 | – | 5.39 | 9.10 | 11200 | –
Nc1nc(=O)n([C@@H]2CS[C@H](CO)O2)cc1F [Emtricitabine] | – | 6.40 | – | – | – | – | – | – | – | – | – | – | – | – | – | – | –
CC(=O)CC[C@H]1C(=O)N[C@@H](C(C)C)C(=O)N[C@@H](Cc2cccc(O)c2)C(=O)N2CCC[C@H](N2)C(=O)O[C@H](/C(C)=C/CO)C/C=C/C=C/[C@H](O)[C@H](C)[C@H]1O [Hydroxymacrocycle, 6] | – | – | 5.08 | 9.9 | – | – | – | – | – | – | – | – | 83600 | – | – | – | –
CC[C@H]1C[C@H](C)[C@@]2(NC1=O)O[C@@H](C[C@H](O)[C@@H](C)CC/C=C/C=C(\C)[C@@H]1C/C=C/C=C/[C@H](O)[C@H](C)[C@@H](O)[C@@H](CCC(C)=O)C(=O)N[C@@H](C(C)C)C(=O)N[C@@H](Cc3cccc(O)c3)C(=O)N3CCC[C@H](N3)C(=O)O1)[C@H](C)[C@H](O)[C@@H]2C [Sanglifehrin A, 5, Sanglifehrin A] | – | – | 6.50 | – | 0.9 | – | – | – | – | – | – | – | 9100 | – | – | – | 2330
